“And” between values parts separate entries of the source, which are not always exact repeats. Identical values can stand only once.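 96-well plates; 48 h exposure; 5 concentrations. Endpoints by linear interpolation between flanking doses. Not reached: highest tested concentration assigned. At the GI50, growth is halved. At the TGI there is no net growth.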 Where a SMILES comes first, the peptide text is derived from it. The star is where a group is joined. Boc = CC(C)(C)OC(=O)*
Experiments:
Assay in all cases: inhibition of tumour cell growth, NCI panel, 48 h
KM12 colon = tested on: KM12 colon
RPMI-8226 leukemia = tested on: RPMI-8226 leukemia
IGROV1 ovarian = tested on: IGROV1 ovarian
NCI/ADR-RES ovarian = tested on: NCI/ADR-RES ovarian
ACHN renal = tested on: ACHN renal
HOP-62 NSCLC = tested on: HOP-62 NSCLC
SF-539 CNS = tested on: SF-539 CNS
LOX IMVI melanoma = tested on: LOX IMVI melanoma
HL-60(TB) leukemia = tested on: HL-60(TB) leukemia
SF-268 CNS = tested on: SF-268 CNS

Row | Compound | GI50 (KM12 colon) | TGI (KM12 colon) | GI50 (RPMI-8226 leukemia) | TGI (RPMI-8226 leukemia) | GI50 (IGROV1 ovarian) | TGI (IGROV1 ovarian) | GI50 (NCI/ADR-RES ovarian) | TGI (NCI/ADR-RES ovarian) | GI50 (ACHN renal) | TGI (ACHN renal) | GI50 (HOP-62 NSCLC) | TGI (HOP-62 NSCLC) | GI50 (SF-539 CNS) | TGI (SF-539 CNS) | GI50 (LOX IMVI melanoma) | TGI (LOX IMVI melanoma) | GI50 (HL-60(TB) leukemia) | TGI (HL-60(TB) leukemia) | GI50 (SF-268 CNS) | TGI (SF-268 CNS)
1 | CCOC(=O)c1c(-c2ccc(OC)cc2)c(C#N)c2c(C#N)c(N)nn2c1N | 4.01 µM | > 100 µM | 2.31 µM | > 100 µM | 3.48 µM | > 100 µM | 3.57 µM | > 100 µM | 4.02 µM | 48.5 µM | 3.32 µM | 22.1 µM | 2.39 µM | 8.6 µM | 4.81 µM | > 100 µM | 3.33 µM | > 100 µM | 5.39 µM | 73.7 µM
2 | Cc1nc2cc(Nc3nc(Nc4ccc(F)cc4)nc(-c4cccs4)n3)ccc2n1Cc1ccccc1 | 3.12 µM | 16.7 µM | 2.07 µM | 5.91 µM | 3.62 µM | 12.9 µM | 3.66 µM | 32.1 µM | 3.86 µM | 59.9 µM | 8.45 µM | > 100 µM | 3.27 µM | 12.9 µM | 2.36 µM | 5.85 µM | 2.46 µM | 6.5 µM | 9.74 µM | > 100 µM
3 | COc1cc(/C=C\c2cc(OC)c(OC)c(OC)c2)cc(N/C=C\C(=O)c2cc(OC)c(OC)c(OC)c2)c1OC | 3.21 µM | > 100 µM | 3.04 µM | > 100 µM | 6.06 µM | > 100 µM | 3.12 µM | > 100 µM | 3.99 µM | > 100 µM | 2.46 µM | > 100 µM | 1.92 µM | 4.51 µM | 3.54 µM | > 100 µM | 3.24 µM | 42.2 µM | 6.04 µM | > 100 µM
4 | C=CCc1ccc(O)c(-c2ccc(O)c(CC=C)c2)c1 | 13.6 µM | 34 µM | 14.6 µM | > 55.9 µM | 5.67 µM | 49.5 µM | 15.3 µM | 33.9 µM | 15.8 µM | 30.6 µM | 20 µM | 39.8 µM | 16.6 µM | 31.8 µM | 15.7 µM | 34.3 µM | 9.66 µM | > 52.3 µM | 10.8 µM | 28 µM
5 | COc1ccccc1Nc1ncc(-c2ccccc2)o1 | 9.77 µM | > 25 µM | > 25 µM | > 25 µM | > 25 µM | > 25 µM | > 25 µM | > 25 µM | > 25 µM | > 25 µM | > 25 µM | > 25 µM | > 25 µM | > 25 µM | > 25 µM | > 25 µM | > 25 µM | > 25 µM | > 25 µM | > 25 µM
6 | CSc1nc(NC2OC(COC(C)=O)C(OC(C)=O)C(OC(C)=O)C2OC(C)=O)c(N=CC=Nc2c(NC3OC(COC(C)=O)C(OC(C)=O)C(OC(C)=O)C3OC(C)=O)nc(SC)n(C)c2=O)c(=O)n1C (stereo unspecified) | > 50 µM | > 100 µM |  | > 100 µM | > 50 µM | > 100 µM | > 50 µM | > 100 µM | 27.8 µM | 50 µM and > 100 µM | 21.2 µM | 50 µM and 29.8 µM |  | 50 µM and 69.3 µM | > 50 µM | > 100 µM | > 50 µM | > 100 µM | > 50 µM | > 100 µM
7 | COc1ccc(C(O)(CCC(C)C)C(CN2CCOCC2)c2ccc(Cl)cc2)cc1 (stereo unspecified) | 11.4 µM | 26.2 µM | 8.76 µM | 31.2 µM | 14.2 µM | 54.2 µM | 11.1 µM | 34.2 µM | 14.4 µM | 27.9 µM | 18.8 µM | 37.4 µM | 15.4 µM | 30.3 µM | 14.5 µM | 28 µM | 14.8 µM | 39.1 µM | 14 µM | 29.3 µM
8 | Cc1ccc(Nc2oc(-c3ccccc3)nc2[P+](c2ccccc2)(c2ccccc2)c2ccccc2)cc1 | 0.861 µM | 2.46 µM | 0.243 µM | 0.639 µM | 0.889 µM | 2.37 µM | 1.48 µM | 3.1 µM | 0.988 µM | 2.76 µM | 1.34 µM | 3.24 µM | 1.59 µM | 3.02 µM | 0.833 µM | 2.11 µM | 0.425 µM | 1.39 µM | 1.56 µM | 4.9 µM
9 | CN(C)C/C=C/C(=O)Nc1cc2c(Nc3ccc(F)c(Cl)c3)ncnc2cc1O[C@H]1CCOC1 | 1.25 µM and 1.99 µM | 11.3 µM and > 10 µM | 1.76 µM and 2.14 µM | 5.39 µM and > 6.56 µM |  | 12.5 µM and 2.35 µM | 2.27 µM and 1.92 µM | 14.8 µM and > 10 µM | < 0.01 µM and 0.00252 µM | 13.1 µM and > 10 µM | 2.49 µM and 3.38 µM | 6.86 µM and > 10 µM | 1.5 µM and 2.59 µM | 4.68 µM and 9.71 µM | 1.02 µM and 1.38 µM | 3.62 µM and > 5.51 µM | 1.45 µM and 0.599 µM | 5.03 µM and 3.75 µM | 2.03 µM and 1.82 µM | 8.58 µM and > 10 µM
10 | CN(C)C(=S)Sc1ccc([N+](=O)[O-])cc1[N+](=O)[O-] | 2.81 µM | 12.7 µM | 1.39 µM | 6.79 µM | 1.26 µM | 13.1 µM | 4.73 µM | 16.8 µM | 1.67 µM | 3.05 µM | 8.26 µM | 21.3 µM | 3.8 µM | 14.6 µM | 1.53 µM | 3.63 µM | 2.68 µM | 8.54 µM | 3.32 µM | 15.4 µM
11 | O=C(CNS(=O)(=O)Cc1ccccc1)NNc1ccccc1 |  | > 100 µM |  | > 100 µM |  | > 100 µM |  | > 100 µM |  | > 100 µM |  | > 100 µM |  | > 25.6 µM |  | > 100 µM |  | > 100 µM |  | > 100 µM
12 | Nc1ccn(C2OC(CO)C(O)C2O)c(=O)n1 (stereo unspecified) |  | > 500 µM | 3.75 µM | > 500 µM | 37.9 µM | > 500 µM | 0.532 µM |  | 0.195 µM and 0.532 µM | > 100 µM and > 35 µM and 151 µM | 0.237 µM |  | 16.8 µM |  | 0.829 µM |  | 0.493 µM |  | 1.01 µM | > 500 µM
13 | C/C(=N\NC(=S)N1CCCCCC1)c1ccccn1 | 0.0688 µM | 0.517 µM and 5.16 µM |  | 0.321 µM and 0.132 µM | < 0.0122 µM | 2.66 µM and 6.59 µM |  | 3.32 µM |  | 5.45 µM and 2.73 µM | 0.0381 µM | 2.4 µM and 3.98 µM | 0.143 µM | 1.74 µM and 2.26 µM |  | 4.37 µM and 1.37 µM |  | 0.185 µM |  | 4.19 µM
14 | Cn1c(Nc2ccc(C(F)(F)F)cc2)nc2cc(Oc3ccnc(-c4ncc(C(F)(F)F)[nH]4)c3)ccc21 | 1.3 µM | 12.5 µM | 1.49 µM | 15.2 µM | 0.0668 µM | 15.4 µM | 1.64 µM | 13.4 µM | 0.0354 µM | 11.7 µM | 2.85 µM | 18.6 µM | 0.232 µM | 13.7 µM | 0.0599 µM | 1.78 µM | 0.365 µM | 7.06 µM | 0.966 µM | 14.5 µM
15 | Nc1c(C(=O)c2ccccc2)cnn1-c1ccc(F)cc1 | > 25 µM | > 25 µM | > 25 µM | > 25 µM | > 25 µM | > 25 µM | > 25 µM | > 25 µM | > 25 µM | > 25 µM | > 25 µM | > 25 µM | > 25 µM | > 25 µM | > 25 µM | > 25 µM | > 25 µM | > 25 µM | > 25 µM | > 25 µM
16 | Clc1nc(Cl)nc(Nc2cccc3ccccc23)n1 | 93.7 µM | > 100 µM | 39.8 µM | > 100 µM | > 100 µM | > 100 µM | > 100 µM | > 100 µM | 92.5 µM | > 100 µM | > 100 µM | > 100 µM | > 100 µM | > 100 µM | 33.5 µM | > 100 µM | > 100 µM | > 100 µM | > 100 µM | > 100 µM
17 | BrCc1cccc(C[P+](c2ccccc2)(c2ccccc2)c2ccccc2)c1 | 16 µM | > 100 µM | 2.18 µM | 22.7 µM | 21.6 µM | > 100 µM | > 100 µM | > 100 µM | > 100 µM | > 100 µM | 4.86 µM | > 100 µM | 6.05 µM | > 100 µM | 14 µM | > 100 µM | 13.9 µM | 49.9 µM | 40.4 µM | > 100 µM
18 | CN(C)CCC(=O)C(=Cc1ccc(O)cc1)C(=O)CCN(C)C | 41.9 µM | > 100 µM | 27.8 µM | > 100 µM | > 100 µM | > 100 µM | > 100 µM | > 100 µM | > 100 µM | > 100 µM | > 100 µM | > 100 µM | > 100 µM | > 100 µM | 79.6 µM | > 100 µM | > 100 µM | > 100 µM | > 100 µM | > 100 µM
19 | COC(=O)C(C)NC(=O)C(CCSC)NC(=O)C(Cc1ccccc1)NC(=O)OC(C)(C)C (stereo not drawn) (Boc-Phe-Met-Ala-OMe; configuration not given here) | 22.4 µg/mL | 51.1 µg/mL and > 100 µM | 22.4 µg/mL | 49.5 µg/mL and > 100 µM | 53.5 µg/mL | > 100 µM |  | > 100 µM |  | > 100 µM |  | > 100 µM |  | > 100 µM | 20.3 µg/mL | 43 µg/mL and > 100 µM | 30.2 µg/mL | 64.6 µg/mL and > 100 µM | 42.3 µg/mL | > 100 µM
